Results as given in patent publication US20040071650A1, “Use of cyclosporin 7-thioamide derivatives for hair growth” (priority 2000, published 2004).
“Also recorded” adds a separate entry of the source.

Tested on: mouse's back
Test: not given
Settings: comparative experiments on mouse's back; cited from earlier work

Substance	hair regrowth effect relative to minoxidil
Cyclosporin A [reference compound]	about 100 times

Tested on: C57BL/6 mice (female)
Test: Test of hair regrowth effects of 7-thioamide derivatives of cyclosporin on shaved backs of mice
Settings: C57BL/6 female mice, 100 μl (0.1% w/v) applied on hair removed back once a day for 30 days; vehicle 32
Experimental: C57BL/6 mice (female), 42˜49 days old, were used in this test.
First of all, mice were removed of hair on their backs using an electric shaver, and weighed. The mice were divided into several groups with weights equally distributed. After one day of adaptation, cyclosporin A and cyclosporin derivatives were applied over the hair removed area once a day per each individual for 30 days. Here, the applied amount of cyclosporin A and derivatives thereof was 100 μl (0.1% w/v). The degree of hair growth were observed by naked eye. The ratio of the area where hairs newly grew to the hair removed area were determined.

Substance	Area ratio (ratio of the area where hairs newly grew to the hair removed area)
Cyclosporin A [reference compound]	87%
Cyclosporin B 7-thioamide ([Ala]^2-[^7ψ^8 CS—NH] cyclosporin)	81%
Cyclosporin C 7-thioamide ([Thr]^2-[^7ψ^8 CS—NH] cyclosporin)	87%
Cyclosporin D 7-thioamide ([Val]^2-[^7ψ^8 CS—NH] cyclosporin)	79%
Cyclosporin G 7-thioamide ([Nva]^2-[^7ψ^8 CS—NH] cyclosporin)	88%

Same assay, conditions: hair regrowth evaluation of synthesized thioamide derivatives

Substance	hair regrowth effect (in words)
Cyclosporin A 4,7-bis(thioamide) [cyclosporin 4,7-bis(tioamide), reference compound]	not all of those derivatives have hair regrowth effect, but only cyclosporin 7-thioamide
Cyclosporin A 4-thioamide [cyclosporin 4-thioamide, reference compound]	not all of those derivatives have hair regrowth effect, but only cyclosporin 7-thioamide
Cyclosporin A 7-thioamide ([^7ψ^8 CS—NH] cyclosporin A) [cyclosporin 7-thioamide]	does have the hair regrowth effect; also recorded: superior hair regrowth (restoring) effect to any other compounds
